In ChEMBL document CHEMBL1140511, “Synthesis of (aryloxyacetylamino)-isonicotinic/nicotinic acid analogues as potent hypoxia-inducible factor (HIF)-1alpha inhibitors” (Bioorg Med Chem Lett, 2007):
Active and inactive are the calls of the source. The rule behind the calls is not given here.

Assays:
[1] = target: T1, Hypoxia-inducible factor 1-alpha (Homo sapiens, UniProt Q16665); assay: Inhibition of hypoxia induced HIF1-alpha transcriptional activity in human Hep3B cells by reporter gene assay; format: cell-based; settings: hep 3b2
T1 sequence (Q16665 whole entry): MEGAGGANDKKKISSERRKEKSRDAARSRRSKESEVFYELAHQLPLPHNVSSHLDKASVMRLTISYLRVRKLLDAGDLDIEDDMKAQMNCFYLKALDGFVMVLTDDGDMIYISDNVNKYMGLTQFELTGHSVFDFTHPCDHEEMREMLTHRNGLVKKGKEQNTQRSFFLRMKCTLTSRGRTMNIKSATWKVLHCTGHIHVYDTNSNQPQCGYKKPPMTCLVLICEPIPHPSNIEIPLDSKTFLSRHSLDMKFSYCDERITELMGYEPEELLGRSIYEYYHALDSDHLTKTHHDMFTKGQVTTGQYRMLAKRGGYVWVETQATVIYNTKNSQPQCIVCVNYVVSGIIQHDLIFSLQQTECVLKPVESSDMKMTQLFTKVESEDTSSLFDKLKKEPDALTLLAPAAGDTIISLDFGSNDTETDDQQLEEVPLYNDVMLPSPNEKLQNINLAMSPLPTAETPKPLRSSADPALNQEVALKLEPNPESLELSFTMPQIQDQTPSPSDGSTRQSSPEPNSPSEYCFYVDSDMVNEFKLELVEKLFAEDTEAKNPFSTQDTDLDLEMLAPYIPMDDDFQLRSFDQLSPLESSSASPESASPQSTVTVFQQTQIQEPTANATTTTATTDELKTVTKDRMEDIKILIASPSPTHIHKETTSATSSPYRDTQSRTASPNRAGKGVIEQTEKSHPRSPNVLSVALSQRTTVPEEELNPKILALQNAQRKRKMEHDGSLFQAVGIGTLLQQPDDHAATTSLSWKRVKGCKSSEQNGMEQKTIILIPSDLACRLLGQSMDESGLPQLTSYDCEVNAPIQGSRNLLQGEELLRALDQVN

[2] = target: T1, Hypoxia-inducible factor 1-alpha; assay: Inhibition of hypoxia induced HIF1-alpha transcriptional activity in human Sk-Hep1 cells by reporter gene assay; format: cell-based
[3] = target: T1, Hypoxia-inducible factor 1-alpha; assay: Inhibition of hypoxia induced HIF1-alpha transcriptional activity in human AGS cells by reporter gene assay; format: cell-based
[4] = Suppression of hypoxia induced EPO expression in human Hep3B cells by RT-PCR; format: functional, cell-based; settings: Hep 3B2
[5] = Suppression of hypoxia induced HIF1-alpha mRNA expression in human Hep3B cells by RT-PCR; format: functional, cell-based; settings: Hep 3B2
[6] = Suppression of hypoxia induced VEGF expression in human Hep3B cells by RT-PCR; format: functional, cell-based; settings: Hep 3B2
[7] = Suppression of hypoxia induced GAPDH mRNA expression in human Hep3B cells by RT-PCR; format: functional, cell-based; settings: Hep 3B2

IC50 [1] [µM]	IC50 [2] [µM]	IC50 [3] [µM]	Structure (SMILES)	Activity [4]	Activity [5]	Activity [6]	Activity [7]
1	2	0.8	O=C(COc1ccc(C23CC4CC(CC(C4)C2)C3)cc1)Nc1cc(C(=O)O)ccn1				
11.2	0.9	11	O=C(COc1ccc(C23CC4CC(CC(C4)C2)C3)cc1)Nc1cc(C(=O)NCCCn2ccnc2)ccn1				
> 30	> 30	1.3	O=C(COc1ccc(C23CC4CC(CC(C4)C2)C3)cc1)Nc1cncc(C(=O)NCCc2ccncc2)c1				
> 10	1.9	> 10	O=C(COc1ccc(C23CC4CC(CC(C4)C2)C3)cc1)Nc1cncc(C(=O)NCCCn2ccnc2)c1				
> 10	11.9	0.9	NC(=O)c1cncc(NC(=O)COc2ccc(C34CC5CC(CC(C5)C3)C4)cc2)c1				
> 30	> 30	> 30	O=C(COc1ccc(C23CC4CC(CC(C4)C2)C3)cc1)Nc1cncc(C(=O)O)c1				
2.6		0.7	COC(=O)c1cccc(NC(=O)COc2ccc(C34CC5CC(CC(C5)C3)C4)cc2)c1				
1.2	1.03	2	COC(=O)c1ccnc(NC(=O)COc2ccc(C34CC5CC(CC(C5)C3)C4)cc2)c1				
3.4	3.4	5.2	O=C(COc1ccc(C23CC4CC(CC(C4)C2)C3)cc1)Nc1cc(C(=O)NCCc2ccncc2)ccn1				
> 30	> 30	> 30	O=C(COc1ccc(C23CC4CC(CC(C4)C2)C3)cc1)Nc1cc(C(=O)NCc2ccco2)ccn1				
3.1	0.6	1.8	NC(=O)c1ccnc(NC(=O)COc2ccc(C34CC5CC(CC(C5)C3)C4)cc2)c1	Dose-dependent effect	inactive	Dose-dependent effect	inactive
0.4		0.35	O=C(COc1ccc(C23CC4CC(CC(C4)C2)C3)cc1)Nc1cccc(C(=O)O)c1				
> 30	2.5	18.6	O=C(COc1ccc(C23CC4CC(CC(C4)C2)C3)cc1)Nc1cc(C(=O)Nc2ccc(Cl)cc2)ccn1				
5.9	> 30	5	COC(=O)c1cncc(NC(=O)COc2ccc(C34CC5CC(CC(C5)C3)C4)cc2)c1				
> 30	4.1	30	O=C(COc1ccc(C23CC4CC(CC(C4)C2)C3)cc1)Nc1cncc(C(=O)NCc2ccco2)c1				
